Biological target: dFASN (FASN1), recombinant full-length (Drosophila melanogaster, UniProt B7Z001)
Assay: NADPH oxidation FASN activity assay, Michaelis-Menten fit
Assay type: biochemical
Settings: 240 µM NADPH, 58 µM malonyl-CoA fixed

Chain of dFASN (FASN1), recombinant full-length (B7Z001 1-2540): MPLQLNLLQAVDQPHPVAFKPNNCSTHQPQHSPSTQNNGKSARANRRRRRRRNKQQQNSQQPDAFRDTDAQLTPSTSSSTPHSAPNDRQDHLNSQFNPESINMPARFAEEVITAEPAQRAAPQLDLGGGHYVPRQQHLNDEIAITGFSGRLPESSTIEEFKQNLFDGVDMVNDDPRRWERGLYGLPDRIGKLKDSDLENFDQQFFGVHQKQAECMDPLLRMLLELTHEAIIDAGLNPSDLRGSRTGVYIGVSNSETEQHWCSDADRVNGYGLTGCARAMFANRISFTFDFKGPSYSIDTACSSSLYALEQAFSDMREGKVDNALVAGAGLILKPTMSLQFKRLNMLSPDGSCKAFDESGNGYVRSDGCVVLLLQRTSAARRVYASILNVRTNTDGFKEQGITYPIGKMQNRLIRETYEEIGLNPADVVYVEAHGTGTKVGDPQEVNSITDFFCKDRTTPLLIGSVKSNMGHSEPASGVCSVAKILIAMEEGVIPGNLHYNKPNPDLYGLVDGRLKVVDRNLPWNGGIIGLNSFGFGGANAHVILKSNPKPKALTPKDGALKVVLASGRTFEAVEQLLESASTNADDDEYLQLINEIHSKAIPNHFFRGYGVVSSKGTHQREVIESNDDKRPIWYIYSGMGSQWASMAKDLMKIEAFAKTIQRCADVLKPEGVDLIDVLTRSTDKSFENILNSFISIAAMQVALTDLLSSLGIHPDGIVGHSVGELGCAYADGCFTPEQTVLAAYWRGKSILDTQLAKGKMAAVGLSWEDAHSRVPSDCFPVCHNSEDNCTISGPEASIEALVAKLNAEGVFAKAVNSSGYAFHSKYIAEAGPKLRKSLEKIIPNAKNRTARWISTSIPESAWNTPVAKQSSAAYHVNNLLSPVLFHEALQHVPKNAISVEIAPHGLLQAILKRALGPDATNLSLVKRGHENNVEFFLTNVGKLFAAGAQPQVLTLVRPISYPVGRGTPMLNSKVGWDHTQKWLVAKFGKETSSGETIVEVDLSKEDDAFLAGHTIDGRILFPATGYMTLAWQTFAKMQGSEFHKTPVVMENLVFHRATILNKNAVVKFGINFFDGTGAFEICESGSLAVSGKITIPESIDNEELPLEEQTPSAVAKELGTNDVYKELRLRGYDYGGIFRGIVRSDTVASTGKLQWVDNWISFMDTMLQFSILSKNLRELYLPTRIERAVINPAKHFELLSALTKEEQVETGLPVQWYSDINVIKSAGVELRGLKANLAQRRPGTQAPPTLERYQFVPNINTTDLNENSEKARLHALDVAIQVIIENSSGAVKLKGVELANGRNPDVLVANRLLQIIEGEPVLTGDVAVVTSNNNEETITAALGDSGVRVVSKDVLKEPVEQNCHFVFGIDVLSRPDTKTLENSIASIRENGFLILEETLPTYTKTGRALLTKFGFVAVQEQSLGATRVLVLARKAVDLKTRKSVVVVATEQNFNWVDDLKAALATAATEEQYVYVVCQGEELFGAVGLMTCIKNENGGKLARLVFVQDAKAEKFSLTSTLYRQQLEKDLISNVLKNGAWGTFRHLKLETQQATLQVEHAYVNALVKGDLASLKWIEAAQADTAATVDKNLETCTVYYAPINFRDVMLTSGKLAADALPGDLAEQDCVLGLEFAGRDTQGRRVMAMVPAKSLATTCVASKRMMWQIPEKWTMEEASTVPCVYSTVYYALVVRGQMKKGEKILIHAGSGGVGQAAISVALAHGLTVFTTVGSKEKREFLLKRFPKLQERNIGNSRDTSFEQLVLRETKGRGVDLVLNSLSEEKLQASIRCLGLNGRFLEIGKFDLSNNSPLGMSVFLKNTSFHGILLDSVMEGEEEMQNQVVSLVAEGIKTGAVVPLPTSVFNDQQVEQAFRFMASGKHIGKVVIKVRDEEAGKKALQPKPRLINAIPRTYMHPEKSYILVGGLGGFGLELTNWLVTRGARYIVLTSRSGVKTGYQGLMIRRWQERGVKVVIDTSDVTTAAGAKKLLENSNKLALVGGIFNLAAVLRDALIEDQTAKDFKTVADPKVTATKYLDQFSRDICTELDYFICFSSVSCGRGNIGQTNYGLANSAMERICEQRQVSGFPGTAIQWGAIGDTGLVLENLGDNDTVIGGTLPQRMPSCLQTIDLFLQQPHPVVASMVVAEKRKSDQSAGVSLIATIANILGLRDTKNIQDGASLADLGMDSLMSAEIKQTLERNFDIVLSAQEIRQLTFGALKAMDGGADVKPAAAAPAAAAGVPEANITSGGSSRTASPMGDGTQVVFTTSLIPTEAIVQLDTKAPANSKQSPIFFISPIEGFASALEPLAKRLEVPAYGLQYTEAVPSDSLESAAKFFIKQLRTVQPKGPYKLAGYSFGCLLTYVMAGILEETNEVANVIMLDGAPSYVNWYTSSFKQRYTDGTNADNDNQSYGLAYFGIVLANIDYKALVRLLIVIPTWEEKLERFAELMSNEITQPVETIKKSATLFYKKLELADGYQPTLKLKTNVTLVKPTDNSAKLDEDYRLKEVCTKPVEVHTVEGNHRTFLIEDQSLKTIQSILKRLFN

`CC(=O)SCCNC(=O)CCNC(=O)[C@H](O)C(C)(C)COP(=O)(O)OP(=O)(O)OC[C@H]1O[C@@H](n2cnc3c(N)ncnc32)[C@H](O)[C@@H]1OP(=O)(O)O` [acetyl-CoA] was tested, and the Km was “Steady-state kinetics over AcCoA was also evaluated”.
